Experimental data as given in ChEMBL document CHEMBL4422617, “Recent advances in the discovery of small molecules targeting glioblastoma” (Eur J Med Chem, 2019).
Values after ≈ are worked out from the molar mass of the structure shown. One block for each molecule: values may come before it.

What was measured:
C6 = test: Antiproliferative activity against rat C6 cells at 50 uM after 24 hrs by MTT assay relative to control; format: functional
U-87 MG [1] = test: Antiproliferative activity against human U87MG cells after 72 hrs by MTT assay; format: functional, cell-based, U-87MG ATCC
LN-229 [2] = test: Antiproliferative activity against human LN229 cells after 5 days by AlamarBlue assay; format: functional, cell-based; settings: LN-229, 120 h
U138-MG = test: Antiproliferative activity against human U138MG cells after 5 days by AlamarBlue assay; format: functional, cell-based; settings: 120 h
[3] = Antiproliferative activity against human U373 cells after 5 days by AlamarBlue assay; format: functional, cell-based, U-373MG ATCC; settings: U373 MG, 120 h
U-87 MG [4] = test: Antiproliferative activity against human U87 cells after 5 days by AlamarBlue assay; format: functional, cell-based, U-87MG ATCC; settings: 120 h
T98G [5] = test: Antiproliferative activity against human T98G cells after 5 days by AlamarBlue assay; format: functional, cell-based; settings: 120 h
SNB-19 = test: Antiproliferative activity against human SNB19 cells after 72 hrs by WST-1 assay; format: functional, cell-based; settings: SNB-19, 72 h
U-251 [6] = test: Antiproliferative activity against human U251MG cells after 120 hrs by SRB assay; format: functional, cell-based; settings: U-251, 120 h
U-87 MG [7] = test: Antiproliferative activity against human U87 cells assessed as reduction in cell viability after 72 hrs by AlamarBlue assay; format: functional, cell-based, U-87MG ATCC
U-87 MG [8] = test: Antiproliferative activity against human U87 cells over-expressing EGFRvIII assessed as reduction in cell viability after 72 hrs by AlamarBlue assay; format: functional, cell-based, U-87MG ATCC
U-251 [9] = test: Antiproliferative activity against human U251 cells assessed as reduction in cell viability after 72 hrs by AlamarBlue assay; format: functional, cell-based; settings: U-251, 72 h
Histone deacetylase = test: Inhibition of mouse liver HDAC using Boc-Lys (Ac)-AMC as substrate preincubated for 5 mins followed by substrate addition and measured after 30 mins by fluorescence assay
U-251 [10] = test: Antiproliferative activity against human U251 cells after 24 hrs by SRB assay; format: functional, cell-based; settings: U-251, 24 h
U-87 MG [11] = test: Antiproliferative activity against human U87 cells; format: functional, cell-based, U-87MG ATCC
[12] = Cytotoxicity against human GBM6 cells after 72 hrs by MTS assay; format: functional; settings: GBM6, 72 h, read-out: ED50 (the source's name)
[13] = Antiproliferative activity against human PRT-HU2 cells after 72 hrs by MTS assay; format: functional, cell-based
T98G [14] = test: Antiproliferative activity against human T98G cells after 72 hrs by MTS assay; format: functional, cell-based
U373 MG = test: Antiproliferative activity against human U373MG cells after 72 hrs by MTS assay; format: functional, cell-based, U-373MG ATCC
U-87 MG [15] = test: Antiproliferative activity against human U87MG cells after 72 hrs by MTS assay; format: functional, cell-based, U-87MG ATCC
U-87 MG [16] = test: Antiproliferative activity against human U87MG cells after 72 hrs by coulter counting analysis; format: functional, cell-based, U-87MG ATCC
[17] = Antiproliferative activity against human DBTRG cells after 72 hrs by coulter counting analysis; format: functional, cell-based
U-251 [18] = test: Antiproliferative activity against human U251 cells after 72 hrs by coulter counting analysis; format: functional, cell-based; settings: U-251, 72 h
U-87 MG [19] = test: Antiproliferative activity against human U87MG cells after 96 hrs by SRB assay; format: functional, U-87MG ATCC
[20] = Antiproliferative activity against human RN1 cells assessed as reduction in cell viability after 72 hrs by AlamarBlue assay; format: functional, cell-based; settings: RN1, 72 h
U-251 [21] = test: Antiproliferative activity against human U251 cells assessed as reduction in cell viability after 72 hrs in presence of irradiation by AlamarBlue assay; format: functional, cell-based; settings: U-251, light or radiation study
[22] = Antiproliferative activity against human RN1 cells assessed as reduction in cell viability after 72 hrs in presence of irradiation by AlamarBlue assay; format: functional, cell-based; settings: RN1, light or radiation study
U-251 [23] = test: Inhibition of cell proliferation of human U251 cells at 5 uM; format: functional
LN-229 [24] = test: Inhibition of cell proliferation of human LN229 cells at 5 uM; format: functional
U-87 MG [25] = test: Inhibition of cell proliferation of human U87 cells over-expressing EGFRvIII at 5 uM; format: functional, U-87MG ATCC
SF-268 = test: Antiproliferative activity against human SF268 cells after 6 days by cell counting analysis; format: functional; settings: SF-268, 144 h
SF-539 = test: Antiproliferative activity against human SF539 cells after 6 days by cell counting analysis; format: functional; settings: SF-539, 144 h
U-251 [26] = test: Antitumor activity against human U251 cells xenografted in CAnN. Cg-Foxn1nu/CrlCrlj nude mouse assessed as tumor growth inhibition at 240 mg/kg, ip dosed 5 times a week for 39 days relative to control; format: functional; settings: U-251, ip, 936 h, read-out: TGI
U-251 [27] = test: Antitumor activity against human U251 cells xenografted in CAnN. Cg-Foxn1nu/CrlCrlj nude mouse assessed as inhibition of tumor weight at 240 mg/kg, ip dosed 5 times a week for 39 days relative to control; format: functional; settings: U-251, ip, 936 h
U-251 [28] = test: Antiproliferative activity against human U251 cells after 6 days by cell counting analysis; format: functional; settings: U-251, 144 h
SNB-75 = test: Antiproliferative activity against human SNB75 cells after 6 days by cell counting analysis; format: functional; settings: SNB-75, 144 h
SF-295 [29] = test: Antiproliferative activity against human SF295 cells after 6 days by cell counting analysis; format: functional; settings: SF-295, 144 h
SNB-78 = test: Antiproliferative activity against human SNB78 cells after 6 days by cell counting analysis; format: functional; settings: SNB-78, 144 h
PBMC = test: Cytotoxicity against human PBMC after 72 hrs by MTT assay; format: cell-based
SF-295 [30] = test: Cytotoxicity against human SF295 cells after 72 hrs by MTT assay; format: functional, cell-based; settings: SF-295, 72 h
[31] = Antiproliferative activity against mouse GL26 cells after 120 hrs by WST-1 assay; format: functional, cell-based; settings: GL26, 120 h
U-251 [32] = test: Antiproliferative activity against human U251 cells after 120 hrs by WST-1 assay; format: functional, cell-based; settings: U-251, 120 h

Structure (SMILES): Brc1c(Br)c(Br)c2[nH]cnc2c1Br
Activity (C6): 50%

IC50 (U-87 MG [1]): 23.6 µM
Structure (SMILES): O=C1C=C(O)C(=O)C(CC2CCC3CCCCC3C2)=C1O (stereo not drawn)

IC50 (U-87 MG [4]): 0.3 to 1.2 µM
Structure (SMILES): O=C(Nc1ccc([N+](=O)[O-])cc1Cl)c1cc(Cl)ccc1O [NICLOSAMIDE]
IC50 (LN-229 [2]): 0.3 to 1.2 µM | IC50 (U138-MG): 0.3 to 1.2 µM | IC50 [3]: 0.3 to 1.2 µM | IC50 (T98G [5]): 0.3 to 1.2 µM

Structure (SMILES): C#CCSc1nc(Cl)nc2nc(SCC#C)n(C)c12
IC50 (SNB-19): 0.07 µg/mL (≈ 0.227 µM)

IC50 (U-251 [6]): 0.033 µM
Structure (SMILES): CN(C)CCN1C(=O)c2cc(NCCc3ccc(O)c(CN(C)C)c3)c3c4c(cc(NCCc5ccc(O)c(CN(C)C)c5)c(c24)C1=O)C(=O)N(CCN(C)C)C3=O

EC50 (U-87 MG [7]): 1.4 µM | EC50 (U-87 MG [8]): 1.7 µM | EC50 (U-251 [9]): 1.6 µM
Structure (SMILES): O=C(CCCc1ccc(-c2cccnc2F)cc1)Nc1ccc(O)cc1

IC50 (Histone deacetylase): 0.028 µM | IC50 (U-251 [10]): 0.8 µM
Structure (SMILES): COc1ccc2c(c1)c(=O)c(C(=O)Nc1nc3ccccc3s1)cn2CCCCCC(=O)NO

Structure (SMILES): Cn1cnc2nc(Cl)nc(SCC#CCN3CCCC3)c21
EC50 (SNB-19): 5 µg/mL (≈ 15.5 µM)

IC50 (U-87 MG [11]): 0.21 µM
Structure (SMILES): NS(=O)(=O)c1cccc2c1C(=O)c1cccc(O)c1C2=O

Structure (SMILES): CN1CCN(C(=O)c2ccc3c(NC4CCN(Cc5ccccc5)CC4)c4ccccc4nc3c2)CC1
EC50 [12]: 4.1 µM

IC50 (U-87 MG [15]): 14.9 µM
Structure (SMILES): Clc1ccccc1CNc1ncnc2c1cnn2CC(Cl)c1ccc(Br)cc1 (stereo not drawn)
IC50 [13]: 14.3 µM | IC50 (T98G [14]): 12.5 µM | IC50 (U373 MG): 17.9 µM

IC50 (U-87 MG [16]): 2.5 µM | IC50 (U-251 [18]): 2.5 µM
Structure (SMILES): Nc1c(-c2cccnc2)ncc2c1C(=O)c1c(-c3ccccn3)nn(-c3ccc(F)cc3F)c1C2=O
IC50 [17]: 2.5 µM

GI50 (U-87 MG [19]): 6.3 µM
Structure (SMILES): NC1(Cc2ccc(Cl)cc2)CCN(c2ncnc3[nH]ccc23)CC1

EC50 (U-251 [21]): 1.3 µM
Structure (SMILES): COc1cc(COc2ccc(NC(=O)CCCc3ccc(-c4cccnc4F)cc3)cc2)c([N+](=O)[O-])cc1OC
EC50 [20]: 37.4 µM | EC50 [22]: 0.3 µM

Structure (SMILES): O=c1[nH]c2ncc(-c3ccc(-c4nc[nH]n4)cc3)nc2n1CCC1CCOCC1
inhibition at 5 µM (U-251 [23]): 60% | inhibition at 5 µM (LN-229 [24]): 60% | inhibition at 5 µM (U-87 MG [25]): 60%

GI50 (U-251 [28]): 0.021 to 0.18 µM
Structure (SMILES): Cc1oc2nc1-c1nc(co1)C(=O)N[C@@H](Cc1ccc(O)cc1)c1nc(c(C)o1)-c1nc(c(C)o1)-c1nc(co1)C(=O)N[C@@H](Cc1ccc(O)cc1)c1nc-2c(C)o1
GI50 (SF-268): 0.021 to 0.18 µM | GI50 (SF-539): 0.021 to 0.18 µM | inhibition in vivo at 240 mg/kg (U-251 [26]): 33% | inhibition in vivo at 240 mg/kg (U-251 [27]): 61% | GI50 (SNB-75): 0.021 to 0.18 µM | GI50 (SF-295 [29]): 0.021 to 0.18 µM | GI50 (SNB-78): 0.021 to 0.18 µM

Structure (SMILES): O=C(O)CNC1=CC(=O)c2ccccc2C1=O
IC50 (PBMC): 23.8 µM | IC50 (SF-295 [30]): 2.4 µM

IC50 (U-251 [32]): 0.000457 µM
Structure (SMILES): C=C1/C(=C/C=C2\CCC[C@]3(C)[C@@H]([C@H](C)CCCCNC(=O)CCC(=O)O)CC[C@@H]23)C[C@@H](O)C[C@@H]1O
IC50 [31]: 16 pM
